# Test system: immunoglobulin light chain protein WIL-FL T46L
# Experiment: Differential scanning fluorimetry (thermal shift) assay
# Type: binding
# Details: Table A; temperature shift [Tm]compound-[Tm]vehicle; recombinant WIL-FL T46L
row,Compound,DSF
1,COC(=O)CC1C2CN(C3CC4(CC(NC(=O)c5nc6c(C)cc(N7CC[C@](C)(c8ccccc8)C7)cn6n5)C4)C3)CC12 (stereo partly drawn) [Compound 357],***** (>2.5° C.=*****)
2,Cc1cc(N2CC[C@](C)(c3ccccc3)C2)cn2nc(C(=O)NC3CC4(C3)CC(N3CCOC(C(=O)O)C3)C4)nc12 (stereo partly drawn) [Compound 358],***** (>2.5° C.=*****)
3,Cc1cc(N2CC[C@](C)(c3ccccc3)C2)cn2nc(C(=O)NC3CC4(C3)OCC4N3CCC(C(=O)O)CC3)nc12 (stereo partly drawn) [Compound 359],***** (>2.5° C.=*****)
4,COC(=O)C1CCN(C2COC23CC(NC(=O)c2nc4c(C)cc(N5CC[C@](C)(c6ccccc6)C5)cn4n2)C3)CC1 (stereo partly drawn) [Compound 360],***** (>2.5° C.=*****)
5,Cc1cc(N2CC[C@](C)(c3ccccc3)C2)cn2nc(C(=O)NC3CC(N4C[C@@H](O)[C@@H](O)C4)C3)nc12 (stereo partly drawn) [Compound 361],***** (>2.5° C.=*****)
6,Cc1cc(N2CC[C@](C)(c3ccccc3)C2)cn2nc(C(=O)NC3CC(N4C[C@H](O)[C@@H](O)C4)C3)nc12 (stereo partly drawn) [Compound 362],***** (>2.5° C.=*****)
7,Cc1cc(N2CC[C@](C)(c3ccccc3)C2)cn2nc(C(=O)NC3CC4(C3)CC(N3C[C@H](F)[C@@H](F)C3)C4)nc12 (stereo partly drawn) [Compound 363],***** (>2.5° C.=*****)
8,Cc1cc(N2CC[C@](C)(c3ccccc3)C2)cn2nc(C(=O)NC3CC4(C3)CC(N3CC5C(C3)C5C(=O)O)C4)nc12 (stereo partly drawn) [Compound 364],***** (>2.5° C.=*****)
9,Cc1cc(N2CC[C@](C)(c3ccccc3)C2)cn2nc(C(=O)NC3CCC(N4CC5C(C4)C5C(=O)O)C3)nc12 (stereo partly drawn) [Compound 365],***** (>2.5° C.=*****)
10,Cc1cc(N2CC[C@](C)(c3ccccc3)C2)cn2nc(C(=O)N3CCC(N4CC5C(C4)C5C(=O)O)CC3)nc12 (stereo partly drawn) [Compound 366],***** (>2.5° C.=*****)
11,Cc1cc(N2CC[C@](C)(c3ccccc3)C2)cn2nc(C(=O)NC3CC4(C3)CC(N3CC5C(C3)C5C(N)=O)C4)nc12 (stereo partly drawn) [Compound 367],***** (>2.5° C.=*****)
12,Cc1cc(N2CC[C@](C)(c3ccccc3)C2)cn2nc(C(=O)NC3CC4(C3)CC(N3CC5C(C3)C5c3nn[nH]n3)C4)nc12 (stereo partly drawn) [Compound 368],***** (>2.5° C.=*****)
13,Cc1cc(N2CC[C@](C)(c3ccccc3)C2)cn2nc(C(=O)NC3CC4(C3)CC(N3C[C@@H](O)[C@@H](O)C3)C4)nc12 (stereo partly drawn) [Compound 369],***** (>2.5° C.=*****)
14,Cc1cc(N2CC[C@](C)(c3ccccc3)C2)cn2nc(C(=O)N3CCC4(CC3)CC(N3CC5C(C3)C5C(=O)O)CO4)nc12 (stereo partly drawn) [Compound 370],***** (>2.5° C.=*****)
15,Cc1cc(N2CC[C@](C)(c3ccccc3)C2)cn2nc(C(=O)NC3CC4(C3)CN(C3CC(C)(C(=O)O)C3)C4)nc12 (stereo partly drawn) [Compound 371],***** (>2.5° C.=*****)
16,COC(=O)C1C2CN(C3CCC34CC(NC(=O)c3nc5c(C)cc(N6CC[C@](C)(c7ccccc7)C6)cn5n3)C4)CC21 (stereo partly drawn) [Compound 372],***** (>2.5° C.=*****)
17,COC(=O)C1CCN(C2CCC23CC(NC(=O)c2nc4c(C)cc(N5CC[C@](C)(c6ccccc6)C5)cn4n2)C3)CC1 (stereo partly drawn) [Compound 373],***** (>2.5° C.=*****)
18,Cc1cc(N2CC[C@](C)(c3ccccc3)C2)cn2nc(C(=O)NC3CC4(CCC4N4CCC(C(=O)O)CC4)C3)nc12 (stereo partly drawn) [Compound 374],***** (>2.5° C.=*****)
19,Cc1cc(N2CC[C@](C)(c3ccccc3)C2)cn2nc(C(=O)N3CCC4(C3)OCC4N3CC4C(C3)C4C(=O)O)nc12 (stereo partly drawn) [Compound 375],***** (>2.5° C.=*****)
20,Cc1cc(N2CC[C@](C)(c3ccccc3)C2)cn2nc(C(=O)N3CC[C@@]4(CCN(C5CCC(C(=O)O)CC5)C4)C3)nc12 (stereo partly drawn) [Compound 376],***** (>2.5° C.=*****)
21,Cc1cc(N2CC[C@](C)(c3ccccc3)C2)cn2nc(C(=O)N3CCC4(CCN(C5CCC(C(=O)O)CC5)C4)C3)nc12 (stereo partly drawn) [Compound 377],***** (>2.5° C.=*****)
22,CCOC(=O)C1C2CN(C3CC4(CC(NC(=O)c5nc6c(C)cc(N7CC[C@](C)(c8ccccc8)C7)cn6n5)C4)C3)CC21 (stereo partly drawn) [Compound 378],***** (>2.5° C.=*****)
23,Cc1cc(N2CC[C@](C)(c3ccccc3)C2)cn2nc(C(=O)NC3CC4(C3)CC(N3CC5C(C3)C5C(=O)O)C4)nc12 (stereo partly drawn) [Compound 379],***** (>2.5° C.=*****)
24,Cc1cc(N2CC[C@](C)(c3ccccc3)C2)cn2nc(C(=O)NC3CC4(C3)CC(N3CCCC(C(=O)O)C3)C4)nc12 (stereo partly drawn) [Compound 380],***** (>2.5° C.=*****)
25,Cc1cc(N2CC[C@](C)(c3ccccc3)C2)cn2nc(C34CC(O)(CO3)C4)nc12 [Compound 381],***** (>2.5° C.=*****)
26,Cc1cc(N2CC[C@@](C)(c3cccc(F)c3)C2)cn2nc(C(=O)NCC(C)(C)O)nc12 [Compound 382],***** (>2.5° C.=*****)
27,Cc1cc(N2CCC(C)(c3cccc(F)c3)C2)cn2nc(C(=O)NC3CCOC3)nc12 (stereo not drawn) [Compound 383],***** (>2.5° C.=*****)

row,Compound,DSF
1,Cc1cc(N2CC[C@](C)(c3cccc(F)c3)C2)cn2nc(C(=O)NC3CC4(C3)CC(N3CC5C(C3)C5C(=O)O)C4)nc12 (stereo partly drawn) [Compound 384],***** (>2.5° C.=*****)
2,Cc1cc(N2CC[C@](C)(c3cccc(F)c3)C2)cn2nc(C(=O)N3CCC(C)(O)C3)nc12 (stereo partly drawn) [Compound 385],***** (>2.5° C.=*****)
3,Cc1cc(N2CCC(C)(c3ccccc3)C2=O)cn2nc(C(=O)N3CC[C@@]4(CCN(c5cccc(C(=O)O)n5)C4)C3)nc12 (stereo partly drawn) [Compound 386],** (>0.5-1 °C =**)
4,Cc1cc(N2CC(C)(c3ccccc3)CC2=O)cn2nc(C(=O)N3CC[C@@]4(CCN(c5cccc(C(=O)O)n5)C4)C3)nc12 (stereo partly drawn) [Compound 387],** (>0.5-1 °C =**)
5,Cc1cc(N2CCC(C)(c3ccc(F)cc3F)C2)cn2nc(C(=O)N3C[C@@H]4CN(c5cccc(C(=O)O)n5)C[C@@H]4C3)nc12 (stereo partly drawn) [Compound 388],**** (>1.5-2.5° C.=****)
6,Cc1cc(N2CCC(C)(c3c(F)cccc3F)C2)cn2nc(C(=O)N3C[C@@H]4CN(c5cccc(C(=O)O)n5)C[C@@H]4C3)nc12 (stereo partly drawn) [Compound 389],***** (>2.5° C.=*****)
7,CCC1(c2ccccc2)CN(c2cc(C)c3nc(C(=O)NC4CCN(c5cccc(C(=O)O)n5)CC4)nn3c2)C1 [Compound 390],***** (>2.5° C.=*****)
8,CCC1(c2ccccc2)CN(c2cc(CO)c3nc(C(=O)NC)nn3c2)C1 [Compound 391],***** (>2.5° C.=*****)
9,CCC1(c2ccccc2)CN(c2cc(CO)c3nc(C(=O)NC4CCN(c5cccc(C(=O)O)n5)CC4)nn3c2)C1 [Compound 392],***** (>2.5° C.=*****)
10,CCC1(c2ccccc2)CN(c2cc(C)c3nc(C(=O)N4CC5CN(c6cccc(C(=O)O)n6)CC5C4)nn3c2)C1 (stereo not drawn) [Compound 393],***** (>2.5° C.=*****)
11,CCC1(c2ccccc2)CN(c2cc(C)c3nc(C(=O)N4CCC5(CCN(c6cccc(C(=O)O)n6)C5)C4)nn3c2)C1 (stereo not drawn) [Compound 394],***** (>2.5° C.=*****)
12,CCC1(c2ccccc2)CN(c2cc(C)c3nc(C(=O)NC4CCN(c5ccnc(C(=O)O)c5)CC4)nn3c2)C1 [Compound 395],***** (>2.5° C.=*****)
13,CCC1(c2ccc(C)cc2)CN(c2cc(C)c3nc(C(=O)N4C[C@@H]5CN(c6cccc(C(=O)O)n6)C[C@@H]5C4)nn3c2)C1 [Compound 396],***** (>2.5° C.=*****)
14,CCC1(c2cccc(C)c2)CN(c2cc(C)c3nc(C(=O)N4C[C@@H]5CN(c6cccc(C(=O)O)n6)C[C@@H]5C4)nn3c2)C1 [Compound 397],***** (>2.5° C.=*****)
15,Cc1cc(N2CC(C)(c3ccccc3)C2)cn2nc(C(=O)N3CC[C@@]4(CCN(c5cccc(C(=O)O)n5)C4)C3)nc12 [Compound 398],***** (>2.5° C.=*****)
16,Cc1cc(N2CC(C)(c3ccccc3)C2)cn2nc(C(=O)N3C[C@@H]4CN(c5cccc(C(=O)O)n5)C[C@@H]4C3)nc12 [Compound 399],***** (>2.5° C.=*****)
17,Cc1cnc(C2(C)CCN(c3cc(C)c4nc(C(=O)N5CC6CN(c7cccc(C(=O)O)n7)CC6C5)nn4c3)C2)nc1 (stereo not drawn) [Compound 400],** (>0.5-1 °C =**)
18,"Cc1cc(N2CCC(C)(c3nn[nH]n3)C2)cn2nc(C(=O)N3C[C@@H]4CN(c5cccc(C(=O)O)n5)C[C@@H]4C3)nc12 (stereo partly drawn) [Compound 401, 6-[5-[8-methyl-6-[3-methyl-3-(2H-tetrazol-5-yl)pyrrolidin-1-yl]-[1,2,4]triazolo[1,5-a]pyridine-2-carbonyl]-1,3,3a, 4,6,6a-hexahydropyrrolo[3,4-c]pyrrol-2-yl]pyridine-2-carboxylic acid]",* (0-0.5° C.=*)
19,COC(=O)c1cc(-n2nnc3c2CCN(C(=O)c2nc4c(C)cc(N5CC[C@](C)(c6ccccc6)C5)cn4n2)C3)ccn1 [Compound 402],***** (>2.5° C.=*****)
20,COC(=O)c1cccc(-c2nc3n(n2)CCN(C(=O)c2nc4c(C)cc(N5CC[C@](C)(c6ccccc6)C5)cn4n2)C3)n1 [Compound 403],***** (>2.5° C.=*****)
21,Cc1cc(N2CC[C@](C)(c3ccccc3)C2)cn2nc(C(=O)N3CCn4nc(-c5cccc(C(=O)O)n5)nc4C3)nc12 [Compound 404],***** (>2.5° C.=*****)
22,Cc1cc(N2CC[C@](C)(c3ccccc3)C2)cn2nc(C(=O)N3CCn4nc(-c5cc(C(=O)O)ccn5)nc4C3)nc12 [Compound 405],***** (>2.5° C.=*****)
23,COC(=O)c1cccc(-c2nnc3n2CCN(C(=O)c2nc4c(C)cc(N5CC[C@](C)(c6ccccc6)C5)cn4n2)C3)n1 [Compound 406],***** (>2.5° C.=*****)
24,Cc1cc(N2CC[C@](C)(c3ccccc3)C2)cn2nc(C(=O)N3CCn4c(nnc4-c4ccnc(C(=O)O)c4)C3)nc12 [Compound 407],***** (>2.5° C.=*****)
25,Cc1cc(N2CC[C@](C)(c3ccccc3)C2)cn2nc(C(=O)N3CCn4c(nnc4-c4cccc(C(=O)O)n4)C3)nc12 [Compound 408],***** (>2.5° C.=*****)
26,COc1cccc([C@@]2(C)CCN(c3cc(C)c4nc(C(=O)N5CC[C@@]6(CCN(c7cccc(C(=O)O)n7)C6)C5)nn4c3)C2)c1 [Compound 409],***** (>2.5° C.=*****)
27,Cc1cc(N2CCC(C)(c3ccccc3O)C2)cn2nc(C(=O)N3CC[C@@]4(CCN(c5cccc(C(=O)O)n5)C4)C3)nc12 (stereo partly drawn) [Compound 410],*** (>1-1.5° C.=***)
